Target: C-terminal-binding protein 2 (Homo sapiens, UniProt P56545)
Assay: CtBP2 ITC
Conditions: pH 8.5
From the text: Five mM MTOB was utilized for competitive displacement assays.

Kd: 2960 µM
SMILES: CSCCC(=O)C(=O)O [4-Methylthio 2-oxobutyric acid (MTOB)]
